Measured values reported in publication PMC11884936, “MDC1 mediates Pellino recruitment to sites of DNA double-strand breaks” (Life Science Alliance, 2025).
“Also recorded” adds a separate entry of the source. Where two headings read alike, the source gives them in different places. Square brackets hold non-standard residues; d marks the D form. Peptide text beside a SMILES is read from it. pT = C[C@@H](OP(=O)(O)O)[C@H](N)C(=O)O; pS = N[C@@H](COP(=O)(O)O)C(=O)O

Legend:
Assay type in all cases: binding
[1] = target: T1, Pellino 1 FHA (Homo sapiens, UniProt Q96FA3); assay: Isothermal titration calorimetry of phosphopeptides with PELI1 FHA fragment; settings: for DG: ITC Gibbs free energy; for DG / DH / TDS: PELI1 FHA; for DG / DH / TDS / Kd: 25 mM HEPES pH 7.0, 200 mM NaCl, 1 mM TCEP; for DH: ITC change in enthalpy; for TDS: ITC temperature x change in entropy; for Kd: PELI1 FHA (residues 13–273) 16 μM in cell, peptide 160 μM in syringe, single-site binding model
T1 construct: PELI1 and 2 FHA domains (residues 13–273 and 15–275, respectively); GST (N, cleaved yes); made in house; host or cells: E. coli BL21 (DE3)
T1 sequence (Q96FA3 13-273): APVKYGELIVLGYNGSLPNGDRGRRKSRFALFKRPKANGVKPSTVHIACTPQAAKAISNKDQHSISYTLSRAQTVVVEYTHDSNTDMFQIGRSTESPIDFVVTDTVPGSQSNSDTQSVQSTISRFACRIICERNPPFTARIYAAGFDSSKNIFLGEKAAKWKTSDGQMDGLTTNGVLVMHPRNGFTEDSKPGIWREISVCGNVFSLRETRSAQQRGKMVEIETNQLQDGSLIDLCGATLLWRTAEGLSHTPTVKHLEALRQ
Method: (§1) The regions corresponding to the PELI1 and 2 FHA domains (residues 13–273 and 15–275, respectively) were cloned into the pGEX-6P1 vector using BamHI/XhoI restriction sites and expressed as a 3C protease-cleavable N-terminal GST fusion protein in BL21 (DE3) cells (NEB). A 20 ml LB overnight culture was inoculated into 1L of LB medium supplemented with 100 μg/ml ampicillin to an OD600 of 0.05 and incubated at 37°C, 250 rpm until an OD600 of 0.6 was reached, whereupon expression was induced with 1 mM isopropyl ß-D-1-thiogalactopyranoside (IPTG) and overnight incubation at 18°C. Overnight cultures were harvested for 20 min at 4,000g, 4°C and resuspended in 20 ml lysis buffer (50 mM HEPES pH 7.5, 150 mM NaCl, 0.2 mg/ml lysozyme, 20 μg/ml DNase, and 1x complete, EDTA-free protease inhibitor cocktail tablet) before sonication-mediated cell lysis. Insoluble material was removed by centrifugation (21,000g, 20 min) and the GST-FHA fusion proteins were purified from the clarified lysate containers using 1 ml bed volume of pre-equilibrated Glutathione Sepharose 4B beads. After washing with 20 column volumes of Pellino FHA buffer (50 mM HEPES pH 7.5, 150 mM NaCl), the protein was cleaved overnight at 4°C from GST with 1% (vol/vol) GST-3C protease and the flow-through was further purified by gel filtration using a HiLoad 16/60 Superdex 200 pg (Cytiva) column. Purified Pellino FHA domains were concentrated to 50 mg/ml with a 10 kD molecular weight cut-off concentrator (Sartorius).
(§2) For ITC analysis protein and peptides were buffer exchanged into 25 mM HEPES pH 7.0, 200 mM NaCl, 1 mM TCEP. Titrations were carried out using a Microcal PEAQ-ITC (Malvern) using 13 injections of peptide at a typical syringe concentration of 160 μM (1 × 0.4 μl, 12 × 3.0 μl) and FHA concentration of 16 μM in the cell. Data were analyzed with a single-site binding model using Microcal PEAQ-ITC software. Peptide sequences are: MDC1 pT699–AYDLQApTQCFA, MDC1-pT719–[…], MDC1-pT752–AYEVLApTQPFC, MDC1-pT765–AYEDSEpTQPFD, IRAK-pT141(+3Y)–AYSSASpTFLYP, γH2AX–GGKATQApSQEY. All peptides were synthesises with N-terminal acetylation and a C-terminal amide. MDC1 pT699 and pT719 were made with alanine substitutions at the pT+4 position (Leu and Met, respectively) to aid solubility and monodispersity.

[2] = target: T2, Pellino 2 FHA (Homo sapiens, UniProt Q9HAT8); assay: Isothermal titration calorimetry of phosphopeptides with PELI2 FHA fragment; settings: for DG: ITC Gibbs free energy; for DG / DH / TDS: PELI2 FHA; for DH: ITC change in enthalpy; for TDS: ITC temperature x change in entropy
T2 construct: PELI1 and 2 FHA domains (residues 13–273 and 15–275, respectively); GST (N, cleaved yes); made in house; host or cells: E. coli BL21 (DE3)
T2 sequence (Q9HAT8 15-275): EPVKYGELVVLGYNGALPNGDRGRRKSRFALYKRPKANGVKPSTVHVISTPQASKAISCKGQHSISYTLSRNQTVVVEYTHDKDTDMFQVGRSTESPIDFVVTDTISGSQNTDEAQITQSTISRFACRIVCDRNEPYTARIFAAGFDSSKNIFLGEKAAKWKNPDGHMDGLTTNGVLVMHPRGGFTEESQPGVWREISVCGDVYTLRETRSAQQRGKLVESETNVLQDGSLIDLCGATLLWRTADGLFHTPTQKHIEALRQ
Method: as §1, §2

[3] = target: T3, MDC1 BRCT-r (Homo sapiens, UniProt Q14676); assay: Isothermal titration calorimetry of γH2AX phosphopeptide with MDC1 BRCT-repeat fragment
T3 sequence (Q14676 1883-2089 limits assumed): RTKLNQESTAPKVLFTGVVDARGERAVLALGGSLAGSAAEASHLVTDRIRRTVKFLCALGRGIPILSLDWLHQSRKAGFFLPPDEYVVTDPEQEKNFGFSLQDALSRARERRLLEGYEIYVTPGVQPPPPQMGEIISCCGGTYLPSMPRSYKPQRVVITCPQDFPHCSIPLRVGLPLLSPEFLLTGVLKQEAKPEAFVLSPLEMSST
Method: as §2

[4] = 25 mM HEPES pH 7.0, 200 mM NaCl, 1 mM TCEP

Structure (SMILES)	DG [1] [kcal/mol]	DH [1] [kcal/mol]	TDS [1] [kcal/mol]	DG [2, 4] [kcal/mol]	DH [2, 4] [kcal/mol]	TDS [2, 4] [kcal/mol]	Kd ([1]; ITC, read-out: Kd) [µM]	tighter affinity than the other TQXF phosphopeptides ([1]; ITC, compared with the other MDC1 TQXF phosphopeptides)	interaction detected by ITC (in words) ([1]; ITC, N-terminal PELI1 fragment (13–273), listed as γH2AX phosphopeptide)	Kd ([1]; ITC)	interaction detected by ITC (in words) ([2]; ITC, N-terminal PELI2 fragment, listed as γH2AX phosphopeptide)	Kd ([2]; ITC, PELI2 FHA (residues 15–275) 16 μM in cell, peptide 160 μM in syringe, 25 mM HEPES pH 7.0, 200 mM NaCl, 1 mM TCEP, single-site binding model)	DG ([3]; ITC Gibbs free energy, MDC1 BRCT-r) [kcal/mol]	DH ([3]; ITC change in enthalpy, MDC1 BRCT-r) [kcal/mol]	TDS ([3]; ITC temperature x change in entropy, MDC1 BRCT-r) [kcal/mol]	Kd ([3]; ITC, MDC1 BRCT-repeat fragment, 25 mM HEPES pH 7.0, 200 mM NaCl, 1 mM TCEP, single-site binding model) [µM]	interaction detected by ITC (in words) ([3]; ITC, purified MDC1 BRCT-repeat fragment, listed as γH2AX phosphopeptide)
CC(=O)N[C@@H](C)C(=O)N[C@@H](Cc1ccc(O)cc1)C(=O)N[C@@H](CC(=O)O)C(=O)N[C@@H](CC(C)C)C(=O)N[C@@H](CCC(N)=O)C(=O)N[C@@H](C)C(=O)N[C@H](C(=O)N[C@@H](CCC(N)=O)C(=O)N[C@@H](CS)C(=O)N[C@@H](Cc1ccccc1)C(=O)N[C@@H](C)C(N)=O)[C@@H](C)OP(=O)(O)O [MDC1-pT699] (Ac-AYDLQA[pT]QCFA-NH2)	-7.77	-18.5	-10.7	-8.13	-19.9	-11.8											
CC(=O)N[C@@H](C)C(=O)N[C@@H](Cc1ccc(O)cc1)C(=O)N[C@@H](CCC(=O)O)C(=O)N[C@@H](CC(=O)O)C(=O)N[C@@H](CCC(=O)O)C(=O)N1CCC[C@H]1C(=O)N[C@H](C(=O)N[C@@H](CCC(N)=O)C(=O)N[C@@H](C)C(=O)N[C@@H](Cc1ccccc1)C(=O)N[C@@H](C)C(N)=O)[C@@H](C)OP(=O)(O)O [MDC1-pT719] (Ac-AYEDEP[pT]QAFA-NH2)	-8.13	-21.8	-13.7	-8.08	-34.7	-26.5	1.14										
CC(=O)N[C@@H](C)C(=O)N[C@@H](Cc1ccc(O)cc1)C(=O)N[C@@H](CCC(=O)O)C(=O)N[C@H](C(=O)N[C@@H](CC(C)C)C(=O)N[C@@H](C)C(=O)N[C@H](C(=O)N[C@@H](CCC(N)=O)C(=O)N1CCC[C@H]1C(=O)N[C@@H](Cc1ccccc1)C(=O)N[C@@H](CS)C(N)=O)[C@@H](C)OP(=O)(O)O)C(C)C [MDC1-pT752] (Ac-AYEVLA[pT]QPFC-NH2)	-8.1	-18.5	-10.3	-8.15	-28.2	-20	1.14										
CC(=O)N[C@@H](C)C(=O)N[C@@H](Cc1ccc(O)cc1)C(=O)N[C@@H](CCC(=O)O)C(=O)N[C@@H](CC(=O)O)C(=O)N[C@@H](CO)C(=O)N[C@@H](CCC(=O)O)C(=O)N[C@H](C(=O)N[C@@H](CCC(N)=O)C(=O)N1CCC[C@H]1C(=O)N[C@@H](Cc1ccccc1)C(=O)N[C@@H](CC(=O)O)C(N)=O)[C@@H](C)OP(=O)(O)O [MDC1-pT765] (Ac-AYEDSE[pT]QPFD-NH2)	-9.08	-22	-12.9	-8.77	-32.7	-23.9	0.23	5–10 fold									
CC(=O)NCC(=O)NCC(=O)N[C@@H](CCCCN)C(=O)N[C@@H](C)C(=O)N[C@H](C(=O)N[C@@H](CCC(N)=O)C(=O)N[C@@H](C)C(=O)N[C@@H](COP(=O)(O)O)C(=O)N[C@@H](CCC(N)=O)C(=O)N[C@@H](CCC(=O)O)C(=O)N[C@@H](Cc1ccc(O)cc1)C(N)=O)[C@@H](C)O [Peptide H2AX-pS139, reference compound] (Ac-GGKATQA[pS]QEY-NH2)									did not detect any interaction; also recorded: no detectable interactions	N.D.B.	did not detect any interaction; also recorded: no detectable interactions	N.D.B.	-8.27	-13.9	-5.62	0.85	bound tightly; also recorded: tight binding
